Patent US11124536B2, “Uridine nucleoside derivatives, compositions and methods of use” (Tufts University, priority 2013, dated 2021)
“Also recorded” adds a separate entry of the source.

Assays:
PSAPP mice [1] = test: Postmortem immunohistochemistry of amyloid beta plaque load in cortex and hippocampus; type: in vivo
Protocol: Mice were perfused transcardially with 4% paraformaldehyde and 40 μm Coronal sections were collected. Sections were sequentially incubated in 0.3% H2O2 for 10 minutes, blocking solution for 2 hrs, blocking solution containing the primary antibody (rabbit anti-beta1-42; rabbit anti-beta1-40, from Chemicon International and rat anti-CD45) for 48 hours at 4° C., and blocking solution containing biotinylated antibody or fluorescently-labeled antibody for 2 hours at room temperature. Sections were visualized in a bright field microscope or a confocal microscope, and the optical density was obtained using MetaMorph software.
To generate these graphs showing plaque load, mice were euthanized, brain sections cut and antibodies directed against Aβ 42 were used to disclose Aβ plaques. Images were acquired digitally and an algorithm was applied to threshold the image so that plaques were isolated from the background. The algorithm then calculated the percent area of the field of view occupied by the plaques.
Brain samples were collected for Abeta analysis with immunostaining. Brains samples were collected after transcardial perfusion with phosphate buffer and 4% paraformaldehyde. Floating brain sections (40 micron) were collected using a microtome. Immunostaining for Aβ40 and Aβ42 were performed according to previously established protocol. Images with DAB staining were collected with brightfield microscopy and analyzed with ImageJ Macro. All data analysis and statistics were performed in GraphPad Prism 6.0.

PSAPP mice [2] = test: Contextual fear conditioning test (freezing %); type: in vivo
Protocol: On day one, animals were trained in a fear conditioning apparatus for a total of 7 minutes with a two-pairing paradigm of cue and mild foot shock (a 30-s acoustic-conditioned stimulus, 80 dB; a 2-s shock stimulus, 0.5 mA). To evaluate contextual fear learning, the animals were returned to the training context 24 hours post-training, and freezing behavior was scored for 5 minutes. Freezing behavior was monitored by MotorMonitor (Hamilton Kinder) and scored every 5 seconds.
This represents a decrease in the cognitive impairment observed in the untreated mice.

PSAPP mice [3] = test: Multiplex analysis of circulating plasma cytokine levels; type: in vivo
Protocol: Inflammatory cytokines were assessed in mouse plasma of both wild type and PS1/APP mice (Alzheimer's mouse model) and the impact of intraperitoneal delivery of the diphosphate derivative of compound 5 on circulating cytokines was assessed. […] 24 hours following the final injection, plasma was collected. Wildtype, age matched littermates and PSAPP mice (>6 months of age) were treated either with vehicle (phosphate buffered saline) or vehicle containing compound.
As part of the study described in Example 16, the levels of numerous cytokines in plasma of mice treated with vehicle or compound 5 were also evaluated. As described in Example 16, treatment was initiated when the mice were approximately 3 months old. PSAPP mice were treated for 100 days with daily injections of 10 μg/kg of compound 5 or vehicle. Following treatment and the fear conditioning task experiment, plasma was taken for multiplex cytokine analysis of circulating cytokine levels in vehicle-treated versus compound-treated PSAPP mice. Cytokine levels are assayed using a multi-plex system where beads are labelled with capture antibody specific for each analyte tested. Each bead set is coupled to a specific capture antibody and is distinguishable from beads coupled to a different capture antibody. Thus, the levels of each analyte can be evaluated and distinguished. […] In FIGS. 17-20, compound 5 is indicated along the x-axis as “compound”.

Oral bioavailability = conditions: in vivo
[4] = Half-life in human whole blood; type: in vitro ADME
human THP-1 cells = test: Cytokine release from THP-1 cells into culture medium (multiplex cytokine analysis); type: cell-based; conditions: 24 hours
Protocol: THP-1 cells, a human cell line derived from monocytes, were treated in vitro with vehicle, the P2Y6 receptor antagonist MRS 2578, or compound 5, singly or in combination. THP-1 cells were seeded in 24 well plates at a density of 4×10^5 cells/well in culture medium for 24 hours. Thereafter, vehicle, compound 5, or MRS 2578 (singly or in combination) were added to the cultures for 24 hours. Subsequently the culture medium was aspirated and subjected to multiplex cytokine analysis. Data are presented as means+/−sem. MRS 2578 has a molecular weight of about 472 and is also described using CAS number 711019-86-2.

[5] = Cmax at the effective dose; conditions: mouse, in vivo; dose 10 ug/kg

O=C1C=CC([C@@H]2O[C@H](CO)C(O)C2O)C(=O)N1Cc1noc2ccccc12 (stereo partly shown) [compound 5]
size distribution of remaining plaques (PSAPP mice [1]; 10 μg/kg i.p. once per day for 7 days, PS1/APP mice 26 weeks): significantly reduced
Aβ40 plaque burden (PSAPP mice [1]; 10 μg/kg i.p. once per day for 7 days, PS1/APP mice 26 weeks, cortex, FIG. 13A): significantly reduced
Aβ42 plaque burden (PSAPP mice [1]; 10 μg/kg i.p. once per day for 7 days, PS1/APP mice 26 weeks, cortex, FIG. 13B): significantly reduced
plaque burden vs vehicle (PSAPP mice [1]; Example 16: 10 μg/kg i.p. daily 100 days from approx. 3 months old, FIG. 16): decrease; also recorded: reduced
amyloid beta accumulation (plaque load) in the cortex (PSAPP mice [1]; Example 18: 10 μg/kg i.p. daily 100 days, FIG. 22A, p<0.01): decreased
amyloid beta accumulation (plaque load) in the hippocampus (PSAPP mice [1]; Example 18: 10 μg/kg i.p. daily 100 days, FIG. 22B, p<0.02): decreased
amyloid beta accumulation in the hippocampus (using Aβ42) (PSAPP mice [1]; Example 19: 10 μg/kg i.p. daily 7 days from approx. 6 months old, FIG. 24A lower panel): decreased
amyloid beta accumulation in the cortex (using Aβ40) (PSAPP mice [1]; Example 19: 10 μg/kg i.p. daily 7 days from approx. 6 months old, FIG. 24A upper panel): decreased
plaque size (PSAPP mice [1]; Example 19: 10 μg/kg i.p. daily 7 days, FIG. 24B): decrease
freezing time (contextual fear memory) vs vehicle (PSAPP mice [2]; Example 16: 10 μg/kg i.p. daily 100 days from approx. 3 months old (pre-symptomatic), FIG. 15): statistically significant increase
freezing time (contextual fear memory) vs vehicle (PSAPP mice [2]; Example 18: 10 μg/kg i.p. daily 100 days from approx. 3 months old, FIG. 22C, p<0.02): statistically significant increase
plasma levels of IL-4, IL-10, and IL-12 (IL-12(p70)) (PSAPP mice [3]; Example 17: 10 μg/kg daily 100 days from approx. 3 months old, FIG. 17): statistically significant reduction
plasma level of p40 subunit alone (IL-12(p40)) (PSAPP mice [3]; Example 17: 10 μg/kg daily 100 days, FIG. 17): does not reflect a change
average plasma levels of IFN-r, IL-1β, IL-2, IL-3, IL-5, IL-6, IL-7, IL-9, IL-13, IL-17, LIF, MIP-1α, and MIP-1β (PSAPP mice [3]; Example 17: 10 μg/kg daily 100 days, FIGS. 17-20): reduced
levels of M-CSF, MIP-2, Eotaxin, GM-CSF, G-CSF, LIX, MCP-1, IL-1α and IP-10 (PSAPP mice [3]; Example 17: 10 μg/kg daily 100 days, FIGS. 18-20): no or substantially no change
plasma levels of IL-12 (IL-12(p70)), IL-13, IL-17, IL-10, IL-4, MIP-1a, MIP-1b, and IL-2 (PSAPP mice [3]; Example 18: 10 μg/kg i.p. daily 100 days from approx. 3 months old, FIG. 21): statistically significant reduction
plasma levels of IL-12 (IL-12(p70)), IL-13, IL-17, IL-10, MIP-1a, MIP-1b, and TNFα (PSAPP mice [3]; Example 19: 10 μg/kg i.p. daily 7 days from approx. 6 months old (symptomatic), FIG. 23): statistically significant reduction
bioavailability (Oral bioavailability): 72.2%
half-life [4]: 16.4 h
release of cytokines from THP-1 cells (human THP-1 cells; 10 nM): reduced
release of IL-7 from human THP-1 cells (human THP-1 cells; compound 5 10 nM alone, FIG. 26): decreased
Cmax [5]: 13 nM
